The record followed here is patent US11931341B2, “Compositions and methods for the treatment and prevention of muscular dystrophy” (University of Iowa Research Foundation, priority 2018, dated 2024).

Type in all cases: in vivo
The subject of experiment [1] is δSgcd−/− mouse model. Description: Cardiac function by echocardiography in δSgcd−/− mouse model. To be noted: older-aged sgcd−/− mice, echocardiography (FIG. 3). The method, then: The effect of C21 was evaluated in a δSgcd−/− mouse model, which is a genetically modified model to imitate limb-girdle muscular dystrophy (LGMD). […] Data from conscious mice were collected during the last week of treatment. At the end of the experiment, tissues were harvested for histopathology and molecular gene expression measurements.
Echocardiography was performed in telemeter-implanted mice using Philips Sonos 5500 clinical imager in mice sedated with midazolam.

Experiment [2] concerns δSgcd−/− mouse model. Description: Spontaneous locomotor activity by radiotelemetry in δSgcd−/− mouse model. To be noted: sgcd−/− mice, C21 0.03 mg/kg/day SC osmotic minipump for eight weeks (FIG. 2). Here is the method:
(§1) The effect of C21 was evaluated in a δSgcd−/− mouse model, which is a genetically modified model to imitate limb-girdle muscular dystrophy (LGMD). At 3 weeks of age, δSgcd−/− mice and control mice were administrated C21 (0.03 mg/kg/day, osmotic minipump, SC) or vehicle for eight weeks. Data from conscious mice were collected during the last week of treatment. At the end of the experiment, tissues were harvested for histopathology and molecular gene expression measurements.
(§2) A radiotelemetry probe (PC10-DSI) that enabled measurement of arterial blood pressure (BP), heart rate (HR) and locomotor activity was inserted into the thoracic aorta through the left common carotid artery under 2% isoflurane anesthesia when the mice were 9 weeks of age. When the mice reached 11-12 weeks of age, changes in BP, HR, and locomotor activity were measured over a minimum of 24 hours at a sampling rate of 500 Hz. In addition, BP was continuously recorded at a high sampling frequency of 2000 Hz for 1-2 hours, to collect data for assessment of spontaneous baroreflex sensitivity (sequence technique), sympathetic tone (HR changes with propranolol) and vagal tone (HR changes with methylatropine).

For experiment [3], the system named is δSgcd−/− mouse model. Description: Autonomic function by radiotelemetry in δSgcd−/− mouse model of limb-girdle muscular dystrophy. The settings on record: Sgcd−/− mice, C21 0.03 mg/kg/day SC osmotic minipump for eight weeks. Here is the method: as §1, §2

Regarding `CCCCOC(=O)NS(=O)(=O)c1sc(CC(C)C)cc1-c1ccc(Cn2ccnc2)cc1` [Compound C21, N-butyloxycarbonyl-3-(4-imidazol-1-ylmethylphenyl)-5-iso-butylthiophene-2-sulfonamide], the “cardiac function measured as end diastolic volume, end systolic volume and ejection fraction” value in the experiment with δSgcd−/− mouse model [1] is recorded as “improved the cardiac function”. In addition, the spontaneous locomotor activity result in the experiment on δSgcd−/− mouse model [2] was “increased the spontaneous locomotor activity to levels comparative to control animals”. For the same compound, the baroreflex sensitivity result with δSgcd−/− mouse model [3] (compared to sgcd−/− placebo treated mice (FIG. 1)) is “increase”. The vagal tone entry with δSgcd−/− mouse model [3] (compared to sgcd−/− placebo treated mice, HR changes with methylatropine (FIG. 1)) is “increase”. For the same compound, the sympathetic tone result in the experiment with δSgcd−/− mouse model [3] (compared to sgcd−/− placebo treated mice, HR changes with propranolol (FIG. 1)) is listed as “decreased”.
